Measurements reported in ChEMBL document CHEMBL2046431 (Bioorg Med Chem, 2012).

Experiment: Permeability across human Caco2 cells
Type: ADME, cell-based
Details: Caco-2, read-out: permeability

Papp [×10⁻⁶ cm/s]	Structure (SMILES)
≤ 1	CN(c1cc2cc(c1)C(=O)N[C@H]([C@H](O)CNCc1ccccc1)COC/C=C/CCNC2=O)S(C)(=O)=O
≤ 1	CC(C)c1cccc(CNC[C@@H](O)[C@@H]2COC/C=C/CCNC(=O)c3cc(cc(N(C)S(C)(=O)=O)c3)C(=O)N2)c1
≤ 1	CN(c1cc2cc(c1)C(=O)N[C@H]([C@H](O)CNCc1cccc(C(C)(C)C)c1)COC/C=C/CCNC2=O)S(C)(=O)=O
≤ 1	CC(C)c1cccc(CNC[C@@H](O)[C@@H]2COC/C=C/CCCNC(=O)c3cc(cc(N(C)S(C)(=O)=O)c3)C(=O)N2)c1
≤ 1	CN(c1cc2cc(c1)C(=O)N[C@H]([C@H](O)CNCc1ccccc1)COCCCCCNC2=O)S(C)(=O)=O
≤ 1	CC(C)c1cccc(CNC[C@@H](O)[C@@H]2COCCCCCNC(=O)c3cc(cc(N(C)S(C)(=O)=O)c3)C(=O)N2)c1
≤ 1	CC(C)c1cccc(CNC[C@@H](O)[C@@H]2COCCCCCCNC(=O)c3cc(cc(N(C)S(C)(=O)=O)c3)C(=O)N2)c1
≤ 1	CC(C)c1cccc(CNC[C@@H](O)[C@@H]2COC/C=C\CCN(C)C(=O)c3cc(cc(N(C)S(C)(=O)=O)c3)C(=O)N2)c1
≤ 1	CC(C)c1cccc(CNC[C@@H](O)[C@@H]2COC/C=C/C[C@@H](c3ccccc3)NC(=O)c3cc(cc(N(C)S(C)(=O)=O)c3)C(=O)N2)c1
≤ 1	CC(C)c1cccc(CNC[C@@H](O)[C@@H]2COC/C=C/C[C@H](c3ccccc3)NC(=O)c3cc(cc(N(C)S(C)(=O)=O)c3)C(=O)N2)c1
≤ 1	Cc1cc2cc(c1)C(=O)N[C@H]([C@H](O)CNCc1ccccc1)COC/C=C/CCNC2=O
≤ 1	Cc1cc2cc(c1)C(=O)N[C@H]([C@H](O)CNCc1cccc(C(C)C)c1)COC/C=C/CCNC2=O
≤ 1	Cc1cc2cc(c1)C(=O)N[C@H]([C@H](O)CNCc1cccc(C(C)C)c1)COC/C=C/C[C@@H](c1ccccc1)NC2=O
≤ 1	Cc1cc2cc(c1)C(=O)N[C@@H](c1ccccc1)C/C=C/COC[C@@H]([C@H](O)CNCc1cccc(C(C)C)c1)NC2=O
